Measurements: ChEMBL document CHEMBL1201862, “PubChem BioAssay data set” (2004)
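Step 1: Grow cells in 96-well plates. Step 2: Expose to compound for 48 hours at 5 concentrations. Step 3: Interpolate endpoints linearly; if unreached, use highest concentration. The concentration for 50% growth inhibition is given as GI50.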 Activity calls are given as the source filed them. Rule as the data show it: active = GI50 up to about 1.1 µM and inactive = higher.

What was measured:
Assay in all cases: NCI-60 cell line screen, 48 h
SN12C = system: SN12C
SNB-75 = system: SNB-75
HOP-62 = system: HOP-62
IGROV-1 = system: IGROV-1
A549 = system: A549
NCI-H522 = system: NCI-H522
A498 = system: A498
SK-MEL-28 = system: SK-MEL-28
OVCAR-8 = system: OVCAR-8
U-251 = system: U-251
UO-31 = system: UO-31
CCRF-CEM = system: CCRF-CEM
HCT-116 = system: HCT-116
TK-10 = system: TK-10
LOX IMVI = system: LOX IMVI
NCI-H23 = system: NCI-H23
SNB-19 = system: SNB-19

SMILES	GI50 (SN12C)	GI50 (SNB-75)	GI50 (HOP-62)	GI50 (IGROV-1)	GI50 (A549)	GI50 (NCI-H522)	GI50 (A498)	GI50 (SK-MEL-28)	GI50 (OVCAR-8)	GI50 (U-251)	GI50 (UO-31)	GI50 (CCRF-CEM)	GI50 (HCT-116)	GI50 (TK-10)	GI50 (LOX IMVI)	GI50 (NCI-H23)	GI50 (SNB-19)
O=C(O)CSc1nnc(COc2ccccc2)n1-c1ccccc1	> 100 µM (inactive)	> 100 µM (inactive)	> 100 µM (inactive)	> 100 µM (inactive)	> 100 µM (inactive)	> 100 µM (inactive)	> 100 µM (inactive)	> 100 µM (inactive)	> 100 µM (inactive)	> 100 µM (inactive)	> 100 µM (inactive)	> 100 µM (inactive)	> 100 µM (inactive)	> 100 µM (inactive)	> 100 µM (inactive)	> 100 µM (inactive)	
Cc1ccc(NC(=O)CC2SC(=N)NC2=O)cc1C (stereo not drawn)	> 100 µM (inactive)	> 100 µM (inactive)	> 100 µM (inactive)	> 100 µM (inactive)	> 100 µM (inactive)	> 100 µM (inactive)		> 100 µM (inactive)	> 100 µM (inactive)	64.3 µM (inactive)	> 100 µM (inactive)		> 100 µM (inactive)	> 100 µM (inactive)	> 100 µM (inactive)	> 100 µM (inactive)	> 100 µM (inactive)
COc1ccc2[nH]c3c(c2c1)[C@H](c1ccccc1)C[C@@H]1C(=O)N(c2ccccc2)C(=O)[C@H]31	12.1 µM (inactive)	20.7 µM (inactive)	22 µM (inactive)	26.9 µM (inactive)	13.3 µM (inactive)	31.3 µM (inactive)	21.4 µM (inactive)	> 100 µM (inactive)	4.93 µM (inactive)	18 µM (inactive)	22.9 µM (inactive)	30.9 µM (inactive)	4.95 µM (inactive)	33.7 µM (inactive)	33.2 µM (inactive)		29.2 µM (inactive)
O=C(CO[N+](=O)[O-])OC/C=C/c1ccccc1	> 100 µM (inactive)	> 100 µM (inactive)	> 100 µM (inactive)	> 100 µM (inactive)	> 100 µM (inactive)	> 100 µM (inactive)			> 100 µM (inactive)	> 100 µM (inactive)	> 100 µM (inactive)	> 100 µM (inactive)	> 100 µM (inactive)	> 100 µM (inactive)	> 100 µM (inactive)	> 100 µM (inactive)	> 100 µM (inactive)
Brc1ccc(N2C[N+](c3ccc(Br)cc3)=NC(c3ccccc3)=N2)cc1	19 µM (inactive)	26.1 µM (inactive)	17.2 µM (inactive)	14.7 µM (inactive)	18.6 µM (inactive)	19.6 µM (inactive)	18.3 µM (inactive)	23 µM (inactive)	21.9 µM (inactive)	19.1 µM (inactive)	14.5 µM (inactive)		18.8 µM (inactive)	19.5 µM (inactive)		16.1 µM (inactive)	17.3 µM (inactive)
COc1ccc(C2c3cc(OC)c(OC)cc3C(Cc3ccc([N+](=O)[O-])cc3)C2c2ccc([N+](=O)[O-])cc2)cc1OC (stereo not drawn)	> 100 µM (inactive)	49.7 µM (inactive)	> 100 µM (inactive)	> 100 µM (inactive)	> 100 µM (inactive)	51.3 µM (inactive)	> 100 µM (inactive)	> 100 µM (inactive)	> 100 µM (inactive)	> 100 µM (inactive)	59.6 µM (inactive)	> 100 µM (inactive)	14 µM (inactive)	> 100 µM (inactive)	> 100 µM (inactive)	> 100 µM (inactive)	> 100 µM (inactive)
N#CC(C#N)=c1[nH]c2cccc3c2-c2c(cccc2c3=C(C#N)C#N)[nH]1	> 100 µM (inactive)	53.1 µM (inactive)	> 100 µM (inactive)	> 100 µM (inactive)	> 100 µM (inactive)	> 100 µM (inactive)	> 100 µM (inactive)		> 100 µM (inactive)	> 100 µM (inactive)	> 100 µM (inactive)	45.1 µM (inactive)	80.7 µM (inactive)	> 100 µM (inactive)	> 100 µM (inactive)	> 100 µM (inactive)	> 100 µM (inactive)
COC(CN1C(=O)c2cccc3cccc(c23)C1=O)OC	41.1 µM (inactive)	43.4 µM (inactive)	43.7 µM (inactive)	> 100 µM (inactive)	56.9 µM (inactive)		82.8 µM (inactive)	> 100 µM (inactive)	71 µM (inactive)	42.4 µM (inactive)	37.1 µM (inactive)	73.3 µM (inactive)	46.2 µM (inactive)	74.3 µM (inactive)	53.5 µM (inactive)	> 100 µM (inactive)	> 100 µM (inactive)
CC(=O)OCC1OC(N2C(=O)[C@@H](Oc3ccccc3)[C@H]2/C=C/c2ccccc2)C(OC(C)=O)C(OC(C)=O)C1OC(C)=O (stereo partly drawn)	> 100 µM (inactive)	31.1 µM (inactive)	40.1 µM (inactive)	> 100 µM (inactive)	> 100 µM (inactive)	> 100 µM (inactive)	72.4 µM (inactive)	> 100 µM (inactive)	> 100 µM (inactive)	58.9 µM (inactive)	> 100 µM (inactive)	> 100 µM (inactive)	> 100 µM (inactive)	> 100 µM (inactive)	> 100 µM (inactive)	> 100 µM (inactive)	31.6 µM (inactive)
COc1ccc2[nH]c3c(C)cc([N+](=O)[O-])c(C)c3c2c1	31.3 µM (inactive)	20.4 µM (inactive)		27.4 µM (inactive)	25 µM (inactive)	17.1 µM (inactive)	21.6 µM (inactive)	24.7 µM (inactive)	23 µM (inactive)	22.9 µM (inactive)	21.6 µM (inactive)	17.9 µM (inactive)	17.9 µM (inactive)	27.1 µM (inactive)		22.6 µM (inactive)	37.8 µM (inactive)
CC(/C(=N\Nc1ccccc1)c1ccc(O)cc1)C1C(=O)Oc2ccccc21 (stereo not drawn)	> 100 µM (inactive)	55.7 µM (inactive)	> 100 µM (inactive)	> 100 µM (inactive)	> 100 µM (inactive)		> 100 µM (inactive)		> 100 µM (inactive)	> 100 µM (inactive)	> 100 µM (inactive)	> 100 µM (inactive)	> 100 µM (inactive)	> 100 µM (inactive)	> 100 µM (inactive)		> 100 µM (inactive)
O=S(=O)(O)SC/C=C\CSS(=O)(=O)O	> 100 µM (inactive)	60.4 µM (inactive)	> 100 µM (inactive)	> 100 µM (inactive)	44.4 µM (inactive)	> 100 µM (inactive)	> 100 µM (inactive)	> 100 µM (inactive)	> 100 µM (inactive)	31.5 µM (inactive)	> 100 µM (inactive)		> 100 µM (inactive)	> 100 µM (inactive)	24.8 µM (inactive)	> 100 µM (inactive)	42.4 µM (inactive)
COc1ccc(CCC2c3cc(OC)c(OC)cc3CCN2C)cc1OC (stereo not drawn)	> 100 µM (inactive)	> 100 µM (inactive)	> 100 µM (inactive)	> 100 µM (inactive)	> 100 µM (inactive)	> 100 µM (inactive)		> 100 µM (inactive)	> 100 µM (inactive)	> 100 µM (inactive)	> 100 µM (inactive)	> 100 µM (inactive)	> 100 µM (inactive)	> 100 µM (inactive)	> 100 µM (inactive)	> 100 µM (inactive)	> 100 µM (inactive)
COC(=O)CC1C[C@H](C#N)N(C(=O)c2ccccc2)C[C@@H]1CC[N+](=O)[O-] (stereo partly drawn)	> 100 µM (inactive)	> 100 µM (inactive)	> 100 µM (inactive)	> 100 µM (inactive)	> 100 µM (inactive)		> 100 µM (inactive)	> 100 µM (inactive)	> 100 µM (inactive)	> 100 µM (inactive)	> 100 µM (inactive)	> 100 µM (inactive)	> 100 µM (inactive)	> 100 µM (inactive)	> 100 µM (inactive)	> 100 µM (inactive)	> 100 µM (inactive)
Cn1c(=O)nc2n(-c3cccc(F)c3)c3ccccc3nc-2c1=O	23.6 µM (inactive)	24.8 µM (inactive)	53.2 µM (inactive)	26.8 µM (inactive)	19 µM (inactive)	16.6 µM (inactive)	39.9 µM (inactive)		23.2 µM (inactive)	19.3 µM (inactive)	52 µM (inactive)	19.4 µM (inactive)	23.6 µM (inactive)	31.6 µM (inactive)	18.1 µM (inactive)	12.1 µM (inactive)	21.9 µM (inactive)
CCN(CC)C(=S)S [DITIOCARB SODIUM]	> 70 µM (inactive)	0.261 µM (active)	> 100 µM (inactive)			0.103 µM (active)		> 47.9 µM (inactive)	> 56.1 µM (inactive)	0.299 µM (active)	> 100 µM (inactive)	0.0443 µM (active)	0.0323 µM (active)	> 100 µM (inactive)	> 55.5 µM (inactive)		> 100 µM (inactive)
COCC(O)Cn1ccnc1[N+](=O)[O-] (stereo not drawn) [MISONIDAZOLE]	> 100 µM (inactive)		> 100 µM (inactive)		> 100 µM (inactive)	> 100 µM (inactive)		> 100 µM (inactive)	> 100 µM (inactive)	> 100 µM (inactive)	> 100 µM (inactive)	> 100 µM (inactive)	> 100 µM (inactive)	> 100 µM (inactive)	> 100 µM (inactive)	> 100 µM (inactive)	> 100 µM (inactive)
